Results: patent publication US7763234B2, “Pharmaceutical compounds” (GE Healthcare AS, priority 2005, dated 2010)
Numbered stars: 1 amine (or outer) side, 2 acyl side, 3 side chain; on linkers, the order of the positions; unused ones are H or OH. Square brackets hold non-standard residues; d marks the D form. Peptide text beside a SMILES is read from it. ξ: configuration not given here. X1 = C/C(=N/O)C(C)(C)NCCC(CCNC(C)(C)/C(C)=N\O)CCN(CC(=O)[*:2])[*:1]; Ile(3ξ) = CCC(C)[C@H](N)C(=O)O

Target: T1, ACE (Sigma A-6778) (Oryctolagus cuniculus, UniProt P12822)
T1 construct: purchased Sigma A-6778
T1 sequence (P12822 34-1310): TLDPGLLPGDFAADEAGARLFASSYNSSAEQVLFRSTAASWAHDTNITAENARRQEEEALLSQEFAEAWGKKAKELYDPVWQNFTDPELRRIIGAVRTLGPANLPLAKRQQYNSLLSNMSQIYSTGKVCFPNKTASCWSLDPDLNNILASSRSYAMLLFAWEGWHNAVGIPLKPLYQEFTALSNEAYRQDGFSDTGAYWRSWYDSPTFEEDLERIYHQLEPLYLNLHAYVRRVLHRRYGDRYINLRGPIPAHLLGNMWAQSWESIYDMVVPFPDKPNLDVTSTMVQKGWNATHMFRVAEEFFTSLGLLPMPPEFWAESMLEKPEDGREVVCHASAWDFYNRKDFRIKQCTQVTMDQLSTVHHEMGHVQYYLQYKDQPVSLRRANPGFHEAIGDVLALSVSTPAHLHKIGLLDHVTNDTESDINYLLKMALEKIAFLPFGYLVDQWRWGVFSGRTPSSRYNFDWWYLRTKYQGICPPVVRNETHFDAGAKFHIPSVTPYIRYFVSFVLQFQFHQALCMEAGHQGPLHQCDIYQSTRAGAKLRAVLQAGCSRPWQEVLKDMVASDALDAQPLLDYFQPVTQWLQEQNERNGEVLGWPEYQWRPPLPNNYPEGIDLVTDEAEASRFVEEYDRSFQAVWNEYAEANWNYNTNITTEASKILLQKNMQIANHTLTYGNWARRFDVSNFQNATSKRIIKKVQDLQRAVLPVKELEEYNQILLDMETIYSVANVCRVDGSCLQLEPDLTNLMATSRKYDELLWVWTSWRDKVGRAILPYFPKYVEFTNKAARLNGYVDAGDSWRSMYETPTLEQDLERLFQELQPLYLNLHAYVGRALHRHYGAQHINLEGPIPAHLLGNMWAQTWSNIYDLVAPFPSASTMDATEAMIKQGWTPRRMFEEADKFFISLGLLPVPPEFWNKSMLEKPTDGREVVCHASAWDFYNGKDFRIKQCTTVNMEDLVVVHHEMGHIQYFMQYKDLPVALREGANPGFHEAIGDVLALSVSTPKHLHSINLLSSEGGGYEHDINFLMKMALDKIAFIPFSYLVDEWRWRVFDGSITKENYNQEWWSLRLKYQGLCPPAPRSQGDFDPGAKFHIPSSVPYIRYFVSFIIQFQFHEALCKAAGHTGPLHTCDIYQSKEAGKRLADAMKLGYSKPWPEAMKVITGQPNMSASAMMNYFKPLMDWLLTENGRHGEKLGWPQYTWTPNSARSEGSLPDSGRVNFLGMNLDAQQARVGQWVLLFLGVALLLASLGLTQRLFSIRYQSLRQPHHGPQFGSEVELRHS
Assay: ACE cleavage of Ang I peptide analogues (LC-MS)
Assay type: biochemical
Details: after 120 min; 0.1 mg peptide in 100 μL ACE stock solution (0.34 mg/mL, 200 mM HEPES pH 7.8), room temperature
Method: ACE stock solution was prepared: 0.34 mg ACE (Sigma A-6778) was dissolved in 1 mL 200 mM HEPES adjusted to pH 7.8 using KOH.
0.1 mg of the Ang I peptide analogue was dissolved in 100 μL of the ACE stock solution and the solution incubated at room temperature. Samples (10 μL) were withdrawn from the solution, diluted with H2O/0.1% TFA (400 μL) and analysed by LC-MS.

CCC(C)[C@H](NC(=O)[C@H](Cc1ccc(O)cc1)NC(=O)[C@@H](NC(=O)[C@H](CCCNC(=N)N)NC(=O)CNCCC(CCNC(C)(C)/C(C)=N\O)CCNC(C)(C)/C(C)=N\O)C(C)C)C(=O)N[C@@H](Cc1cnc[nH]1)C(=O)N1CCC[C@H]1C(=O)N[C@@H](Cc1ccccc1)C(=O)N[C@@H](Cc1cnc[nH]1)C(=O)N[C@@H](CC(C)C)C(=O)O (stereo partly drawn) [cPn216-Gly-Arg-Val-Tyr-Ile-His-Pro-Phe-His-Leu-OH] (H-[X1]RVY[Ile(3ξ)]HPFHL-OH)
percent cleavage/time: 40%/120 min

Ang I: the decapeptide Ang I, formed from angiotensinogen by renin and converted by ACE to the active Ang II
percent cleavage/time: 40%/120 min
